Assay results: PubChem BioAssay AID330 (DTP/NCI, 2004)
Values joined by “and” are separate entries in the source; they are usually repeats but may differ in a detail not shown here. Equal values may be shown once. Toxic doses and inconclusive results are not listed. Bridge positions count the residues as written; N and C are the ends. Peptide text beside a SMILES is read from it. I, II: the chains in the order shown.

Test system: P388 leukemia ip, CD2F1 mice, survival T/C
Assay: NCI In Vivo Anticancer Drug Screen. Data for tumor model P388 Leukemia (intraperitoneal) in CD2F1 (CDF1) mice
Settings: endpoint: median survival time, higher = longer survival
Procedure, shortened: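 Mice carrying the transplanted tumor received test compound or vehicle. Survival was recorded in each group, and the value is the treated-group measurement divided by that of the vehicle-treated control group.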

[1] = dose: 50.0 mg/kg/injection, schedule: Q01DX005 (ip), vehicle: saline
[2] = dose: 100.0 mg/kg/injection, schedule: Q01DX005 (ip), vehicle: saline
[3] = dose: 200.0 mg/kg/injection, schedule: Q01DX005 (ip), vehicle: saline
[4] = dose: 60.0 mg/kg/injection, schedule: Q01DX005 (ip), vehicle: saline with Tween-80
[5] = dose: 120.0 mg/kg/injection, schedule: Q01DX005 (ip), vehicle: saline with Tween-80
[6] = dose: 240.0 mg/kg/injection, schedule: Q01DX005 (ip), vehicle: saline with Tween-80
[7] = dose: 50.0 mg/kg/injection, schedule: Q01DX009 (ip), vehicle: saline
[8] = dose: 100.0 mg/kg/injection, schedule: Q01DX009 (ip), vehicle: saline
[9] = dose: 200.0 mg/kg/injection, schedule: Q01DX009 (ip), vehicle: saline
[10] = dose: 50.0 mg/kg/injection, schedule: Q01DX009 (ip), vehicle: saline with Tween-80
[11] = dose: 100.0 mg/kg/injection, schedule: Q01DX009 (ip), vehicle: saline with Tween-80
[12] = dose: 200.0 mg/kg/injection, schedule: Q01DX009 (ip), vehicle: saline with Tween-80
[13] = dose: 100.0 mg/kg/injection, schedule: Q01DX005 (ip), vehicle: Klucel (hydroxypropylcellulose) (HPC)
[14] = dose: 200.0 mg/kg/injection, schedule: Q01DX005 (ip), vehicle: Klucel (hydroxypropylcellulose) (HPC)
[15] = dose: 50.0 mg/kg/injection, schedule: Q01DX005 (ip), vehicle: Klucel (hydroxypropylcellulose) (HPC)
[16] = dose: 25.0 mg/kg/injection, schedule: Q04DX003 (ip), vehicle: saline
[17] = dose: 50.0 mg/kg/injection, schedule: Q04DX003 (ip), vehicle: saline
[18] = dose: 12.5 mg/kg/injection, schedule: Q01DX009 (ip), vehicle: saline with Tween-80
[19] = dose: 25.0 mg/kg/injection, schedule: Q01DX009 (ip), vehicle: saline with Tween-80
[20] = dose: 50.0 mg/kg/injection, schedule: Q01DX009 (ip), vehicle: Klucel (hydroxypropylcellulose) (HPC)
[21] = dose: 100.0 mg/kg/injection, schedule: Q01DX009 (ip), vehicle: Klucel (hydroxypropylcellulose) (HPC)
[22] = dose: 200.0 mg/kg/injection, schedule: Q01DX009 (ip), vehicle: Klucel (hydroxypropylcellulose) (HPC)
[23] = dose: 100.0 mg/kg/injection, schedule: Q04DX003 (ip), vehicle: saline
[24] = dose: 100.0 mg/kg/injection, schedule: Q04DX002 (ip), vehicle: saline with Tween-80
[25] = dose: 200.0 mg/kg/injection, schedule: Q04DX002 (ip), vehicle: saline with Tween-80
[26] = dose: 400.0 mg/kg/injection, schedule: Q04DX002 (ip), vehicle: saline with Tween-80

`NC(CSSCC(N)C(=O)NC(Cc1ccc(O)cc1)C(=O)O)C(=O)NC(Cc1ccc(O)cc1)C(=O)O` (stereo not drawn) (I: H-Cys-Tyr-OH / II: H-Cys-Tyr-OH; disulfide I:1-II:1; configuration not given here) was tested, and the T/C [1] was 110 % of control, the T/C [2] was 111 % of control and the T/C [3] was 103 % of control.

`CCC(C)C1SCC(=O)N1c1nncs1` (stereo not given) was tested, and the T/C [4] was 104 % of control, the T/C [5] was 100 % of control and the T/C [6] was 107 % of control.

`CCOC1(C)OC2OC(COC(C)=O)C(OC(C)=O)C(OC(N)=O)C2O1` (stereo not given) was tested, and the T/C (dose: 50.0 mg/kg/injection, schedule: Q01DX005 (ip), vehicle: saline with Tween-80) was 97 % of control, the T/C (dose: 100.0 mg/kg/injection, schedule: Q01DX005 (ip), vehicle: saline with Tween-80) was 92 % of control and the T/C (dose: 200.0 mg/kg/injection, schedule: Q01DX005 (ip), vehicle: saline with Tween-80) was 92 % of control.

`COP(=O)(CI)OC` was tested, and the T/C [7] was 102 % of control, the T/C [8] was 99 % of control and the T/C [9] was 107 % of control.

With `CCCCS/C=C1\CCc2cc(OC)ccc2C12CC1=C(CCc3cc(OC)ccc31)C(SCCCC)C2` (stereo not given) the T/C [10] was 94 % of control, the T/C [11] was 88 % of control and the T/C [12] was 87 % of control.

With `CC(Nc1ccc(S(=O)(=O)Nc2ncccn2)cc1)c1ccc2cccnc2c1O` (stereo not given) the T/C (dose: 100.0 mg/kg/injection, schedule: Q01DX001 (ip), vehicle: saline with Tween-80) was 94 % of control and the T/C (dose: 200.0 mg/kg/injection, schedule: Q01DX001 (ip), vehicle: saline with Tween-80) was 98 % of control.

In the case of `O=C1C(n2ccc(=O)[nH]c2=O)CCN1CCCl` (stereo not given), the T/C [13] is reported as 108 % of control and the T/C [14] is reported as 108 % of control.

`CCOP(=O)(OCC)C1OCC(O)C(C2OC(P(=O)(OCC)OCC)OCC2O)O1` (stereo not given) was tested, and the T/C [7] was 109 % of control, the T/C [8] was 112 % of control and the T/C [9] was 112 % of control.

In the case of `O=C1C=C(N2CC2)C(=O)C(N2CC2)=C1N1CC1`, the T/C (dose: 0.02 mg/kg/injection, schedule: Q01DX005 (ip), vehicle: saline) is reported as 155 % of control, the T/C (dose: 0.04 mg/kg/injection, schedule: Q01DX005 (ip), vehicle: saline) is reported as 157 % of control and 158 % of control and 175 % of control and the T/C (dose: 0.08 mg/kg/injection, schedule: Q01DX005 (ip), vehicle: saline) is reported as 191 % of control and 194 % of control and 214 % of control. For the same compound, the T/C (dose: 0.16 mg/kg/injection, schedule: Q01DX005 (ip), vehicle: saline) was 215 % of control and 226 % of control and 287 % of control and the T/C (dose: 0.32 mg/kg/injection, schedule: Q01DX005 (ip), vehicle: saline) was 111 % of control.

`O=C(N/N=C\c1ccc(Cl)cc1)c1ccccc1` was tested, and the T/C [10] was 95 % of control, the T/C [11] was 90 % of control and the T/C [12] was 104 % of control.

`Nc1[nH]c(=S)[nH]c(=O)c1N=Cc1ccc2c(c1)OCO2` was tested, and the T/C (dose: 100.0 mg/kg/injection, schedule: Q04DX003 (ip), vehicle: Klucel (hydroxypropylcellulose) (HPC)) was 108 % of control and 113 % of control and the T/C (dose: 200.0 mg/kg/injection, schedule: Q04DX003 (ip), vehicle: Klucel (hydroxypropylcellulose) (HPC)) was 112 % of control and 114 % of control.

In the case of `CC(C)CCOCCOCCCN1C(=O)C2C3C=CC(C3)C2C1=O` (stereo not given), the T/C [15] is reported as 99 % of control and the T/C [13] is reported as 100 % of control.

`O=CNc1ccc(C(=O)O)c(O)c1` was tested, and the T/C [4] was 98 % of control, the T/C [5] was 93 % of control and the T/C [6] was 90 % of control.

`Nc1ccccc1N1CCNCC1` was tested, and the T/C (dose: 12.5 mg/kg/injection, schedule: Q04DX003 (ip), vehicle: saline) was 100 % of control, the T/C [16] was 100 % of control and the T/C [17] was 98 % of control and 101 % of control.

With `NC(N)=Nc1c(N)ncnc1N` the T/C [4] was 104 % of control and 95 % of control, the T/C [5] was 100 % of control and the T/C [6] was 96 % of control and 98 % of control.

`O=C1OCC/C1=C1\CCCO1` was tested, and the T/C [18] was 112 % of control and 97 % of control, the T/C [19] was 100 % of control and 102 % of control and the T/C [10] was 98 % of control and 99 % of control. For the same compound, the T/C [11] was 102 % of control and 108 % of control and 116 % of control, the T/C [12] was 112 % of control and the T/C (dose: 400.0 mg/kg/injection, schedule: Q01DX009 (ip), vehicle: saline with Tween-80) was 113 % of control.

`CC(=O)OCC1OC(OC(C)=O)C(NC(=O)CNC(=O)OCc2ccccc2)C(OC(C)=O)C1OC(C)=O` (stereo not given) was tested, and the T/C (dose: 12.5 mg/kg/injection, schedule: Q01DX009 (ip), vehicle: other) was 107 % of control, the T/C (dose: 25.0 mg/kg/injection, schedule: Q01DX009 (ip), vehicle: other) was 100 % of control and the T/C (dose: 50.0 mg/kg/injection, schedule: Q01DX009 (ip), vehicle: other) was 91 % of control. The T/C (dose: 100.0 mg/kg/injection, schedule: Q01DX009 (ip), vehicle: other) was 89 % of control and the T/C (dose: 200.0 mg/kg/injection, schedule: Q01DX009 (ip), vehicle: other) was 98 % of control.

With `CC[As](CC)SC1CC2C3CCC4=CC(=O)C=CC4(C)C3C(=O)CC2(C)C1C(=O)CC(C)=O` (stereo not given) the T/C [15] was 101 % of control, the T/C [13] was 103 % of control and the T/C [14] was 94 % of control.

With `O=C(c1ccccc1)C12CCC3CC(CC(C3)C1)C2` the T/C [20] was 100 % of control, the T/C [21] was 99 % of control and the T/C [22] was 100 % of control.

For `C=CCC(C)(C#N)C1C=CCC1` (stereo not given), the T/C (dose: 100.0 mg/kg/injection, schedule: Q01DX009 (ip), vehicle: saline sonified) was 100 % of control, the T/C (dose: 200.0 mg/kg/injection, schedule: Q01DX009 (ip), vehicle: saline sonified) was 100 % of control and the T/C (dose: 400.0 mg/kg/injection, schedule: Q01DX009 (ip), vehicle: saline sonified) was 122 % of control.

For `CN1CCC/C1=C/C(=O)c1ccccc1`, the T/C [23] was 100 % of control and the T/C (dose: 200.0 mg/kg/injection, schedule: Q04DX003 (ip), vehicle: saline) was 111 % of control.

`O=C1C2=C(Nc3cc([N+](=O)[O-])ccc3N2)OC1c1ccccc1O` (stereo not given) was tested, and the T/C (dose: 30.0 mg/kg/injection, schedule: Q01DX005 (ip), vehicle: Klucel (hydroxypropylcellulose) (HPC)) was 106 % of control, the T/C (dose: 60.0 mg/kg/injection, schedule: Q01DX005 (ip), vehicle: Klucel (hydroxypropylcellulose) (HPC)) was 103 % of control and 90 % of control and the T/C (dose: 120.0 mg/kg/injection, schedule: Q01DX005 (ip), vehicle: Klucel (hydroxypropylcellulose) (HPC)) was 101 % of control. For the same compound, the T/C (dose: 240.0 mg/kg/injection, schedule: Q01DX005 (ip), vehicle: Klucel (hydroxypropylcellulose) (HPC)) was 90 % of control.

With `Nc1cccc(-n2ccnc2)c1` the T/C [24] was 100 % of control, the T/C [25] was 93 % of control and the T/C [26] was 90 % of control.

For `Nc1ccc(/C=C/c2cccc3cccnc23)cc1`, the T/C [18] was 96 % of control, the T/C [19] was 96 % of control and the T/C [10] was 93 % of control.

`CC(C)C(=O)C(O)C(C)C` (stereo not given) was tested, and the T/C [1] was 92 % of control, the T/C [2] was 103 % of control and the T/C [3] was 100 % of control.

In the case of `CC1OC(OC2C(OC3C[C@@]4(C)C(C[C@H](O)[C@H]5[C@H](C6(C)CCC(C(C)(C)O)O6)CCC54C)[C@]4(C)CC[C@@H](O)C(C)(C)C34)OC(CO)C(O)C2O)C(O)C(O)C1O` (stereo not given in full) (tested in a mixture with another compound), the T/C [20] is reported as 101 % of control, the T/C [21] is reported as 101 % of control and the T/C [22] is reported as 94 % of control.

In the case of `Nc1cc(C(CC(=O)NO)NO)ccc1[N+](=O)[O-]` (stereo not given), the T/C [20] is reported as 94 % of control, the T/C [21] is reported as 110 % of control and the T/C [22] is reported as 102 % of control.

For `CC(C)=CCC/C(C)=C/CC/C(C)=C/CC/C(C)=C/C=C/C=C(\C)CC/C=C(\C)CC/C=C(\C)CCC=C(C)C`, the T/C (dose: 17.5 mg/kg/injection, schedule: Q01DX005 (ip), vehicle: saline) was 101 % of control, the T/C (dose: 35.0 mg/kg/injection, schedule: Q01DX005 (ip), vehicle: saline) was 100 % of control and the T/C (dose: 70.0 mg/kg/injection, schedule: Q01DX005 (ip), vehicle: saline) was 95 % of control. The T/C (dose: 140.0 mg/kg/injection, schedule: Q01DX005 (ip), vehicle: saline) was 104 % of control.

For `Cc1cc2nc(C)nn2c(C)n1`, the T/C [16] was 104 % of control, the T/C [17] was 96 % of control and the T/C [23] was 111 % of control and 88 % of control. The T/C (dose: 400.0 mg/kg/injection, schedule: Q04DX003 (ip), vehicle: saline) was 88 % of control.

`S=C(S)n1nc(-c2ccccc2)c(N=Nc2cccc(Cl)c2Cl)c1-c1ccccc1` was tested, and the T/C [24] was 93 % of control, the T/C [25] was 93 % of control and the T/C [26] was 109 % of control.
